For one compound, KD and binding results are on record in article PMC4661537 (2015).

The subject of assay [1] is Spi (single Spinach aptamer, 24-2) (RNA, aptamer) GACGCAACUGAAUGAAAUGGUGAAGGACGGGUCCAGGUGUGGCUGCUUCGGCAGUGCAGCUUGUUGAGUAGAGUGUGAGCUCCGUAACUAGUCGCGUC
As to the kind of experiment: fluorescence association kinetics (koff/kon). As to conditions: K+ 125 mM, Mg2+ 5 mM (folding buffer); 40 mM K-HEPES pH 7.5; 40 nM aptamer, DFHBI 200-600 nM; mean over concentrations; biphasic; per site.

The subject of assay [2] is Spi-8R (RNA, aptamer) UAGACGGCAUGGGGAGACGCGACCGAAAUGGUGAAGGACGGGUCCAGUGCUUCGGCACUGUUGAGUAGAGUGUGAGCUCCGUAACUGGUCGCGUCACGUAAGAUGCUCCGGUUAGGGAGACGCGACCGAAAUGGUGAAGGACGGGUCCAGUGCUUCGGCACUGUUGAGUAGAGUGUGAGCUCCGUAACUGGUCGCGUCACUGAUGUACCGUUGAGCAGGGAGACGCGACCGAAAUGGUGAAGGACGGGUCCAGUGCUUCGGCACUGUUGAGUAGAGUGUGAGCUCCGUAACUGGUCGCGUCACUCGCUAGAGCAUGGUUUGGGAGACGCGACCGAAAUGGUGAAGGACGGGUCCAGUGCUUCGGCACUGUUGAGUAGAGUGUGAGCUCCGUAACUGGUCGCGUCACUGGGGCACGCCGUCUGGGGGAGACGCGACCGAAAUGGUGAAGGACGGGUCCAGUGCUUCGGCACUGUUGAGUAGAGUGUGAGCUCCGUAACUGGUCGCGUCACUUACUGCGACCGCAAUAGGGAGACGCGACCGAAAUGGUGAAGGACGGGUCCAGUGCUUCGGCACUGUUGAGUAGAGUGUGAGCUCCGUAACUGGUCGCGUCACGCGCGCAACCGGGUAGAGGGAGACGCGACCGAAAUGGUGAAGGACGGGUCCAGUGCUUCGGCACUGUUGAGUAGAGUGUGAGCUCCGUAACUGGUCGCGUCACGUAACUCACGGCGCUAUGGGAGACGCGACCGAAAUGGUGAAGGACGGGUCCAGUGCUUCGGCACUGUUGAGUAGAGUGUGAGCUCCGUAACUGGUCGCGUC
As to the kind of experiment: fluorescence association kinetics (koff/kon). As to conditions: K+ 125 mM, Mg2+ 5 mM (folding buffer); 40 mM K-HEPES pH 7.5; 10 nM RNA (34.8 nM folded aptamer), DFHBI 200-600 nM; per aptamer; biphasic; per site.

Assay [3] concerns Spi-tRNA (RNA, aptamer) GCCCGGAUAGCUCAGUCGGUAGAGCAGCGGCCGGACGCAACUGAAUGAAAUGGUGAAGGACGGGUCCAGGUGUGGCUGCUUCGGCAGUGCAGCUUGUUGAGUAGAGUGUGAGCUCCGUAACUAGUCGCGUCCGGCCGCGGGUCCAGGGUUCAAGUCCCUGUUCGGGCGCCA
Nature of the assay: fluorescence activation. As to conditions: K+ 125 mM, Mg2+ 5 mM (folding buffer); fluorescence slightly higher than single Spinach.

Molecules are shown by their SMILES.

For the compound `CC1=N/C(=C\c2cc(F)c(O)c(F)c2)C(=O)N1C`, the KD in assay [1] came to 303 ± 22 nM; in assay [2] it was 246 ± 67 nM. Besides, in assay [3], the binding entry is “yes”.

In general, KD refers to the constant that tells how readily two partners part at equilibrium. A low value points to higher affinity.
